Assay results: patent US20260022142A1, “MACROCYCLIC IMMUNOMODULATORS” (Bristol-Myers Squibb Company, priority 2022, published 2026)
pIC50: −log10 of the molar value. Bridge positions count the residues as written; N and C are the ends. Square brackets hold non-standard residues; d marks the D form. Peptide text beside a SMILES is read from it. * marks the point of attachment. ξ: configuration not given here. Phe(4-COOH) = N[C@@H](Cc1ccc(C(=O)O)cc1)C(=O)O; Bip = N[C@@H](Cc1ccc(-c2ccccc2)cc1)C(=O)O; Phe(3-Me) = Cc1cccc(C[C@H](N)C(=O)O)c1; Cha = N[C@@H](CC1CCCCC1)C(=O)O; Thr(3ξ) = CC(O)[C@H](N)C(=O)O; Carboxymethyl = O=C(O)C*; Orn = NCCC[C@H](N)C(=O)O; Aun = NCCCCCCCCCCC(=O)O; Dab = NCC[C@H](N)C(=O)O; Dap = NC[C@H](N)C(=O)O; AEEA = NCCOCCOCC(=O)O

Target: T1, PD-1/PD-L1 interaction (PE-labeled human PD-L1-Ig binding to Jurkat cell line over-expressing human PD-1) (Homo sapiens, UniProt Q15116)
T1 construct: expressed in transfected cells; host or cells: Jurkat
Assay: Jurkat-PD-1 Cell Binding High-Content Screening Assay (CBA)
Type: cell-based
Settings: Jurkat cell line over-expressing human PD-1; PE-labeled PD-L1-Ig 20 nM final; read-out: Jurkat hPD1-PDL1 IC50
Outline: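 Binding of fluorescent PD-L1-Ig (20 nM final) to Jurkat-PD-1 cells was measured by automated imaging after 1 h, following a 2 h compound pre-treatment at 37° C.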

T1 sequence (Q15116 25-288): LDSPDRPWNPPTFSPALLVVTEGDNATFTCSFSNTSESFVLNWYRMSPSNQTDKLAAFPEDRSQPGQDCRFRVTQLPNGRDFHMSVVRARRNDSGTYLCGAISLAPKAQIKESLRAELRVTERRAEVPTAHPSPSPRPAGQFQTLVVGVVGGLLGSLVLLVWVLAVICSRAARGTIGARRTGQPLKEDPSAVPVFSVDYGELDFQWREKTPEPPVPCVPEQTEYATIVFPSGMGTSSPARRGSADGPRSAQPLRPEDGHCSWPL

Row | Compound | pIC50
1 | Cc1cccc(C[C@@H]2NC(=O)[C@H](CC(=O)O)NC(=O)[C@H](Cc3ccc(OCC(=O)O)cc3)NC(=O)[C@H](CN)NC(=O)CSC[C@@H](C(=O)N[C@@H](CCCCN)C(=O)NCCCCCCCCCCC(=O)O)NC(=O)[C@H](C(C)O)NC(=O)[C@H](C(C)C)NC(=O)[C@H](CC3CCCCC3)NC(=O)[C@H](CCN)NC(=O)[C@@H](CC(C)C)NC(=O)[C@H](CCCN)NC(=O)[C@H](Cc3ccc(O)cc3)NC(=O)[C@H](Cc3ccc(-c4ccccc4)cc3)NC(=O)[C@H](C(C)C)NC2=O)c1 (stereo partly drawn) [Compound 2589] ({CH2CO}-[Dap]Y(Carboxymethyl)D[Phe(3-Me)]V[Bip]Y[Orn][dL][Dab][Cha]V[Thr(3ξ)]CK[Aun]-OH; thioether N-14) | 7.87
2 | Cc1cccc(C[C@@H]2NC(=O)[C@H](CC(=O)O)NC(=O)[C@H](Cc3ccc(OCC(=O)O)cc3)NC(=O)[C@H](CN)NC(=O)CSC[C@@H](C(=O)N[C@@H](CCCCN)C(=O)NCCCCCCCCCCC(=O)O)NC(=O)[C@H](CCCN)NC(=O)[C@H](C(C)C)NC(=O)[C@H](CC3CCCCC3)NC(=O)[C@H](CCN)NC(=O)[C@@H](CC(C)C)NC(=O)[C@H](CCCN)NC(=O)[C@H](Cc3ccc(O)cc3)NC(=O)[C@H](Cc3ccc(-c4ccccc4)cc3)NC(=O)[C@H](C(C)C)NC2=O)c1 [Compound 2590] ({CH2CO}-[Dap]Y(Carboxymethyl)D[Phe(3-Me)]V[Bip]Y[Orn][dL][Dab][Cha]V[Orn]CK[Aun]-OH; thioether N-14) | 8.02
3 | Cc1cccc(C[C@@H]2NC(=O)[C@H](CC(=O)O)NC(=O)[C@H](Cc3ccc(OCC(=O)O)cc3)NC(=O)[C@H](CN)NC(=O)CSC[C@@H](C(=O)NCCOCCOCC(=O)N[C@@H](CCN)C(=O)NCCCCCCCCCCC(=O)O)NC(=O)[C@H](C(C)O)NC(=O)[C@H](C(C)C)NC(=O)[C@H](CC3CCCCC3)NC(=O)[C@H](CCN)NC(=O)[C@@H](CC(C)C)NC(=O)[C@H](CCCN)NC(=O)[C@H](Cc3ccc(O)cc3)NC(=O)[C@H](Cc3ccc(-c4ccccc4)cc3)NC(=O)[C@H](C(C)C)NC2=O)c1 (stereo partly drawn) [Compound 2591] ({CH2CO}-[Dap]Y(Carboxymethyl)D[Phe(3-Me)]V[Bip]Y[Orn][dL][Dab][Cha]V[Thr(3ξ)]C[AEEA][Dab][Aun]-OH; thioether N-14) | 8.02
4 | Cc1cccc(C[C@@H]2NC(=O)[C@H](CC(=O)O)NC(=O)[C@H](Cc3ccc(OCC(=O)O)cc3)NC(=O)[C@H](CN)NC(=O)CSC[C@@H](C(=O)NCCOCCOCC(=O)N[C@@H](CCN)C(=O)NCCCCCCCCCCC(=O)O)NC(=O)[C@H](CCCN)NC(=O)[C@H](C(C)C)NC(=O)[C@H](CC3CCCCC3)NC(=O)[C@H](CCN)NC(=O)[C@@H](CC(C)C)NC(=O)[C@H](CCCN)NC(=O)[C@H](Cc3ccc(O)cc3)NC(=O)[C@H](Cc3ccc(-c4ccccc4)cc3)NC(=O)[C@H](C(C)C)NC2=O)c1 [Compound 2592] ({CH2CO}-[Dap]Y(Carboxymethyl)D[Phe(3-Me)]V[Bip]Y[Orn][dL][Dab][Cha]V[Orn]C[AEEA][Dab][Aun]-OH; thioether N-14) | 7.97
5 | CC(C)C[C@H]1NC(=O)[C@H](CCCN)NC(=O)[C@H](C(C)C)NC(=O)[C@H](Cc2ccc(-c3ccccc3)cc2)NC(=O)[C@H](C(C)C)NC(=O)[C@H](Cc2c[nH]c3ccccc23)NC(=O)[C@H](CC(=O)O)NC(=O)[C@H](Cc2ccc(C(=O)O)cc2)NC(=O)[C@H](Cc2ccc(OCC(=O)O)cc2)NC(=O)CSC[C@@H](C(=O)NCCOCCOCC(=O)N[C@@H](CCCCN)C(=O)NCCCCCCCCCCC(=O)O)NC(=O)[C@H](CCCCN)NC(=O)[C@H](C(C)C)NC(=O)[C@H](CC2CCCCC2)NC(=O)[C@H](CCN)NC1=O [Compound 2593] ({CH2CO}-Y(Carboxymethyl)[Phe(4-COOH)]DWV[Bip]V[Orn][dL][Dab][Cha]VKC[AEEA]K[Aun]-OH; thioether N-14) | 7.74
6 | CC(C)C[C@H]1NC(=O)[C@H](CCCN)NC(=O)[C@H](C(C)C)NC(=O)[C@H](Cc2ccc(-c3ccccc3)cc2)NC(=O)[C@H](C(C)C)NC(=O)[C@H](Cc2c[nH]c3ccccc23)NC(=O)[C@H](CC(=O)O)NC(=O)[C@H](Cc2ccc(OCC(=O)O)cc2)NC(=O)[C@H](CN)NC(=O)CSC[C@@H](C(=O)NCCOCCOCC(=O)N[C@@H](CCCCN)C(=O)NCCCCCCCCCCC(=O)O)NC(=O)[C@H](CCCCN)NC(=O)[C@H](C(C)C)NC(=O)[C@H](CC2CCCCC2)NC(=O)[C@H](CCN)NC1=O [Compound 2595] ({CH2CO}-[Dap]Y(Carboxymethyl)DWV[Bip]V[Orn][dL][Dab][Cha]VKC[AEEA]K[Aun]-OH; thioether N-14) | 7.47
7 | Cc1cccc(C[C@@H]2NC(=O)[C@H](CC(=O)O)NC(=O)[C@H](Cc3ccc(OCC(=O)O)cc3)NC(=O)[C@H](CN)NC(=O)CSC[C@@H](C(=O)NCCOCCOCC(=O)N[C@@H](CCCCN)C(=O)NCCCCCCCCCCC(=O)O)NC(=O)[C@H](CN)NC(=O)[C@H](C(C)C)NC(=O)[C@H](CC3CCCCC3)NC(=O)[C@H](CCN)NC(=O)[C@@H](CC(C)C)NC(=O)[C@H](CCCN)NC(=O)[C@H](C(C)C)NC(=O)[C@H](Cc3ccc(-c4ccccc4)cc3)NC(=O)[C@H](C(C)C)NC2=O)c1 [Compound 2596] ({CH2CO}-[Dap]Y(Carboxymethyl)D[Phe(3-Me)]V[Bip]V[Orn][dL][Dab][Cha]V[Dap]C[AEEA]K[Aun]-OH; thioether N-14) | 8.02
8 | Cc1cccc(C[C@@H]2NC(=O)[C@H](CC(=O)O)NC(=O)[C@H](Cc3ccc(OCC(=O)O)cc3)NC(=O)[C@H](CN)NC(=O)CSC[C@@H](C(=O)NCCOCCOCC(=O)N[C@@H](CCCCN)C(=O)NCCCCCCCCCCC(=O)O)NC(=O)[C@H](CCCN)NC(=O)[C@H](C(C)C)NC(=O)[C@H](CC3CCCCC3)NC(=O)[C@H](CCN)NC(=O)[C@@H](CC(C)C)NC(=O)[C@H](CCCN)NC(=O)[C@H](C(C)C)NC(=O)[C@H](Cc3ccc(-c4ccccc4)cc3)NC(=O)[C@H](C(C)C)NC2=O)c1 [Compound 2597] ({CH2CO}-[Dap]Y(Carboxymethyl)D[Phe(3-Me)]V[Bip]V[Orn][dL][Dab][Cha]V[Orn]C[AEEA]K[Aun]-OH; thioether N-14) | 8.05
9 | Cc1cccc(C[C@@H]2NC(=O)[C@H](CC(=O)O)NC(=O)[C@H](Cc3ccc(OCC(=O)O)cc3)NC(=O)[C@H](CN)NC(=O)CSC[C@@H](C(=O)NCCOCCOCC(=O)N[C@@H](CCCCN)C(=O)NCCCCCCCCCCC(=O)O)NC(=O)[C@H](CCCNC(=N)N)NC(=O)[C@H](C(C)C)NC(=O)[C@H](CC3CCCCC3)NC(=O)[C@H](CCN)NC(=O)[C@@H](CC(C)C)NC(=O)[C@H](CCCN)NC(=O)[C@H](C(C)C)NC(=O)[C@H](Cc3ccc(-c4ccccc4)cc3)NC(=O)[C@H](C(C)C)NC2=O)c1 [Compound 2598] ({CH2CO}-[Dap]Y(Carboxymethyl)D[Phe(3-Me)]V[Bip]V[Orn][dL][Dab][Cha]VRC[AEEA]K[Aun]-OH; thioether N-14) | 7.97
10 | CC(C)C[C@H]1NC(=O)[C@H](CCCN)NC(=O)[C@H](C(C)C)NC(=O)[C@H](Cc2ccc(-c3ccccc3)cc2)NC(=O)[C@H](C(C)C)NC(=O)[C@H](Cc2c[nH]c3ccccc23)NC(=O)[C@H](CC(=O)O)NC(=O)[C@H](Cc2ccc(OCC(=O)O)cc2)NC(=O)[C@H](Cc2ccc(OCC(=O)O)cc2)NC(=O)CSC[C@@H](C(=O)NCCOCCOCC(=O)N[C@@H](CCCCN)C(=O)NCCCCCCCCCCC(=O)O)NC(=O)[C@H](CCCN)NC(=O)[C@H](C(C)C)NC(=O)[C@H](CC2CCCCC2)NC(=O)[C@H](CCN)NC1=O [Compound 2599] ({CH2CO}-Y(Carboxymethyl)Y(Carboxymethyl)DWV[Bip]V[Orn][dL][Dab][Cha]V[Orn]C[AEEA]K[Aun]-OH; thioether N-14) | 8.09
11 | CC(C)C[C@H]1NC(=O)[C@H](CCCN)NC(=O)[C@H](C(C)C)NC(=O)[C@H](Cc2ccc(-c3ccccc3)cc2)NC(=O)[C@H](C(C)C)NC(=O)[C@H](Cc2c[nH]c3ccccc23)NC(=O)[C@H](CC(=O)O)NC(=O)[C@H](Cc2ccc(OCC(=O)O)cc2)NC(=O)[C@H](Cc2ccc(OCC(=O)O)cc2)NC(=O)CSC[C@@H](C(=O)NCCOCCOCC(=O)N[C@@H](CCCCN)C(=O)NCCCCCCCCCCC(=O)O)NC(=O)[C@H](CN)NC(=O)[C@H](C(C)C)NC(=O)[C@H](CC2CCCCC2)NC(=O)[C@H](CCN)NC1=O [Compound 2600] ({CH2CO}-Y(Carboxymethyl)Y(Carboxymethyl)DWV[Bip]V[Orn][dL][Dab][Cha]V[Dap]C[AEEA]K[Aun]-OH; thioether N-14) | 7.99
12 | CC(C)C[C@H]1NC(=O)[C@H](CCCN)NC(=O)[C@H](C(C)C)NC(=O)[C@H](Cc2ccc(-c3ccccc3)cc2)NC(=O)[C@H](C(C)C)NC(=O)[C@H](Cc2c[nH]c3ccccc23)NC(=O)[C@H](CC(=O)O)NC(=O)[C@H](Cc2ccc(C(=O)O)cc2)NC(=O)[C@H](Cc2ccc(OCC(=O)O)cc2)NC(=O)CSC[C@@H](C(=O)NCCCCCCCCCCC(=O)O)NC(=O)[C@H](CCCCN)NC(=O)[C@H](C(C)C)NC(=O)[C@H](CC2CCCCC2)NC(=O)[C@H](CCN)NC1=O [Compound 2601] ({CH2CO}-Y(Carboxymethyl)[Phe(4-COOH)]DWV[Bip]V[Orn][dL][Dab][Cha]VKC[Aun]-OH; thioether N-14) | 7.74
13 | CC(C)C[C@H]1NC(=O)[C@H](CCCN)NC(=O)[C@H](C(C)C)NC(=O)[C@H](Cc2ccc(-c3ccccc3)cc2)NC(=O)[C@H](C(C)C)NC(=O)[C@H](Cc2c[nH]c3ccccc23)NC(=O)[C@H](CC(=O)O)NC(=O)[C@H](Cc2ccc(OCC(=O)O)cc2)NC(=O)[C@H](Cc2ccc(OCC(=O)O)cc2)NC(=O)CSC[C@@H](C(=O)NCCCCCCCCCCC(=O)O)NC(=O)[C@H](CCCNC(=N)N)NC(=O)[C@H](C(C)C)NC(=O)[C@H](CC2CCCCC2)NC(=O)[C@H](CCN)NC1=O [Compound 2602] | 7.74
14 | CC(C)C[C@H]1NC(=O)[C@H](CCCN)NC(=O)[C@H](C(C)C)NC(=O)[C@H](Cc2ccc(-c3ccccc3)cc2)NC(=O)[C@H](C(C)C)NC(=O)[C@H](Cc2c[nH]c3ccccc23)NC(=O)[C@H](CC(=O)O)NC(=O)[C@H](Cc2ccc(OCC(=O)O)cc2)NC(=O)[C@H](CN)NC(=O)CSC[C@@H](C(=O)NCCCCCCCCCCC(=O)O)NC(=O)[C@H](CCCCN)NC(=O)[C@H](C(C)C)NC(=O)[C@H](CC2CCCCC2)NC(=O)[C@H](CCN)NC1=O [Compound 2603] ({CH2CO}-[Dap]Y(Carboxymethyl)DWV[Bip]V[Orn][dL][Dab][Cha]VKC[Aun]-OH; thioether N-14) | 8.15
